Key:
[1] = system: FX mice; assay: Cliff avoidance reflex (CAR) test for motor impulsivity; type: in vivo, mouse; conditions: 20 mg/kg intraperitoneal, 30 min test, 5 min intervals
Source text: (§1) The B6.129P2-Fmr1^tm1Cgr/J strain of mouse was used in the studies as it is a widely used mouse model of FX (Kazdoba et al. Intractable Rare Dis. Res. 2014, 3, 118), and C57BL/6J mice were used as the control strain of mice. Mice were housed 2-4 per cage and maintained on a “reversed” light cycle (lights-off at 7 am and lights-on at 7 pm). They were habituated to the investigator by extensive handing for at least one week prior to the beginning of behavioral analyses. Additionally, they were habituated to the behavioral test room for at least 30 min prior to the behavioral testing, and testing was conducted under dim red light.
(§2) The mice underwent a battery of tests starting on postnatal day 60 (P60). Behavioral analyses included measurements of spontaneous locomotor activity, working memory, attention, and social interactions. Approximately 12 male and/or female mice were used for each behavioral test.
Motor-impulsivity was assayed using a cliff avoidance reflex (CAR) test. The apparatus consists of a round Plexiglas platform (20 cm in diameter) supported by an iron rod (50 cm in height). The mouse is placed on the platform and observed over a period of 30 min. If the mouse falls off the platform during the 30 min period, it is picked up and returned to the platform to complete the test. The number of falls is recorded, and the data are analyzed at 5 min intervals.

[2] = system: male FX mice; assay: Spontaneous locomotor activity assay (photobeam breaks, dark phase); type: in vivo, mouse; conditions: male FX mice (B6.129P2-Fmr1tm1Cgr/J); nor-BNI 20 mg/kg or MPH 0.75 mg/kg intraperitoneal; measured between 7 pm and 7 am
Source text: as §1, §2
Spontaneous locomotor activity was assayed by using a testing chamber with photobeam motion sensors (Photobeam Activity Systems, San Diego Instruments, San Diego, Calif.). […] Photobeam breaks were recorded, scored as an ambulatory event, and grouped into hourly activity measurements for statistical analysis. Cumulative activity over the 12 hour “dark phase” was calculated. […]

Row | SMILES | Time course of cliff avoidance reflex ([1]; female FX mice) | Time course of cliff avoidance reflex ([1]; male FX mice) | Spontaneous locomotor activity compared to saline [2]
1 | Oc1ccc2c3c1O[C@H]1c4[nH]c5c(c4C[C@@]4(O)[C@@H](C2)N(CC2CC2)CC[C@]314)C[C@@]1(O)[C@H]2Cc3ccc(O)c4c3[C@@]1(CCN2CC1CC1)[C@H]5O4 [nor-BNI, norbinaltorphimine] | improved the time course of cliff avoidance reflex | did not produce significant effects | significant reduction in activity
2 | COC(=O)C(c1ccccc1)C1CCCCN1 (stereo not shown) [Methylphenidate, methylphenidate] |  |  | did not produce significant effects
